The record followed here is a melting point compilation (Tetko et al.).

Structures are written as SMILES.

In the case of `O=C(c1ccccc1)c1noc(-c2ccccc2)c1S(=O)(=O)c1ccccc1`, the melting point (commonly the temperature of the solid-liquid transition) was 188 °C.
On to `O=C(O)c1ccc(N/N=C(\C(=O)c2cccs2)C(=O)C(F)(F)F)cc1`, for which the melting point came out at 219 °C.
With `CN(c1c(F)c(F)c(F)c(F)c1F)[N+](=O)[O-]`, the melting point was determined as 39.5 °C.
As to `O=C(O)C(F)C(F)(F)F` (stereo unspecified), the melting point was 28.2 to 29.2 °C.
The compound `CC1=NNC(=O)C1=NNc1ccccc1C(=O)O` had a melting point of 239 °C.
On to `O=C(CCCl)c1ccc(Br)cc1`, for which the melting point worked out at 60 °C.
To `CCOC(=O)c1cnn(C)c1S(=O)(=O)NC(=O)Nc1nc(OC)cc(OC)n1` belongs 182 °C; to `CC(CCC(=O)O)C1CCC2C3C(=O)CC4CCCCC4(C)C3CCC12C` (stereo unspecified), 145 °C; to `ClCc1csc(-c2cccs2)n1`, 52 to 56 °C.
To `CCCCCOC=O` belongs -73.5 °C.
The compound `CC1COC(=O)O1` (stereo unspecified) showed a melting point of -48.8 °C.
On to `CC(=O)C1(C)Cc2ccccc2C(=O)O1` (stereo unspecified), for which the melting point was 105 °C.
In turn, `CC(C)(C)OC(=O)C1(S(=O)(=O)c2ccc(Cl)cc2)CC1` yielded a melting point of 110 °C.
To `C=C1CCC2OC2(C)CCC2C1CC2(C)C` (single isomer, unassigned; (-)) belongs 62.5 °C; to `O=C1c2ccccc2S(=O)(=O)N1Br`, 160 to 170 °C; to `Clc1ncnc2sccc12`, 105 °C.
To `C[Si](C)(C)N=C=S` belongs -32.8 °C.
`COC(=O)c1scc(Br)c1OC` gave a melting point of 73 to 74 °C.
In the case of `O=C1CCCC(=O)N1`, the melting point came out at 156 °C.
As to `COC(=O)c1cc(C)c(Br)s1`, the melting point was 35 to 37 °C.
`CC(CC(=O)c1ccc(Cl)cc1)C(=O)O` (stereo unspecified) registered a melting point of 137 to 139 °C.
For the compound `CC(=O)OC(/C=C/c1ccccc1)=NNC(N)=O`, the melting point was 174 °C.
`Cc1cc(Br)c(Br)cc1C`: the melting point came to 86 °C.
The compound `O=C(O)CNc1ccccc1C(=O)O` came in with a melting point of 218 °C.
Regarding `COc1cc(C(=O)c2ccc(Cl)cc2Cl)c([N+](=O)[O-])cc1OC`, the melting point stood at 114 °C.
To `COC1(OC)C2C=CC(C)(O2)C1C(=O)O` (stereo unspecified) belongs 176 to 178 °C.
In turn, `CCCCCCCCCCCCCCCCCCCCCCCCCCCCCC[Si](Cl)(Cl)Cl` gave a melting point of 60 to 80 °C.
In turn, `c1ccc(C2(c3ccccc3)CC2C2=NCCN2)cc1` (stereo unspecified) came in with a melting point of 104 °C.
For the compound `NC(=O)c1ccc2c(c1)OCO2`, the melting point was 167 to 169 °C.
To `COc1ccc(C(CCC(=O)O)C(C)(C)C(=O)O)cc1` (stereo unspecified) belongs 121 °C.
Take `N#CC1(N2CCCCC2)CCN(Cc2ccccc2)CC1`: the melting point is 103 to 106 °C.
To `Cc1sc(C2CCN(C(=O)OC(C)(C)C)CC2)nc1CC(=O)O` belongs 48 to 50 °C; to `O=C(O)CSCCSCC(=O)O`, 110 °C.
With `CC(=O)c1ccc([N+](=O)[O-])s1`, the melting point is 106 °C.
Turning to `CC(=O)C=Cc1oc2ccc([N+](=O)[O-])cc2c1-c1ccc(C)o1`, the melting point was 178 °C.
Under `Nc1nc(Cl)c2ncn(C3OC(CO)C(O)C3O)c2n1` (stereo unspecified) stands 166 to 167 °C; under `COc1nc(C)nc(NC(=O)NS(=O)(=O)c2ccccc2Cl)n1`, 176 °C; under `Cc1cc(C)ncn1`, 25 °C.
Compound `NC1CCC(c2ccccc2)CC1CO` (stereo unspecified) gave a melting point of 116 to 122 °C.
Take `O=c1[nH]c2ccc(Br)cc2s1`: the melting point was in the range of 228 to 232 °C.
For `COc1ccc(C=CC(=O)c2ccc(O)cc2)cc1`, the melting point stood at 188 °C.
`O=C=Nc1ccc(Br)cc1`: the melting point is 41 °C.
To `COCC(=O)c1ccccc1` belongs 8 °C; to `O=C1C(Cl)=C(Cl)C(=O)C(NCc2ccccc2)=C1Cl`, 231 °C.
Compound `Cc1onc(-c2c(Cl)cccc2Cl)c1C(=O)O` gave a melting point of 223 °C.
Consider `BrC(Br)=C(Br)Br`, for which the melting point is 56.5 °C.
Take `COc1c(F)cc(N)cc1F`: the melting point stood at 79 °C.
Take `O=[N+]([O-])c1c(Cl)c(Cl)c(Cl)c(Cl)c1NCc1ccccc1`: the melting point was in the range of 96 to 97 °C.
In turn, `Cc1ccc(C(c2ccc(C)o2)c2ccccc2O)o1` displayed a melting point of 65 °C.
`O=C1Cc2cc(C(=O)CBr)ccc2N1` gave a melting point of 225 °C.
As to `CC(C)=CCC/C(C)=N/NC(N)=O`, the melting point was found to be 136 °C.
For the compound `NC(=O)c1ccc(Cl)c([N+](=O)[O-])c1`, the melting point turned out to be 152 °C.
For `CC(C)CC1=C/C(=C/c2ccc(-c3cccc([N+](=O)[O-])c3)o2)C(=O)O1`, the melting point came out at 164 °C.
Compound `OCc1cccc2cccc(CO)c12` yielded a melting point of 155 to 158 °C.
With `COc1ccc(N(C)C(=S)Cl)cc1`, the melting point was in the range of 70 to 72 °C.
On to `Clc1cc2oc3c(Cl)cc(Cl)c(Cl)c3c2cc1Cl`, for which the melting point worked out at 237 °C.
As for `NC(CO)Cc1ccccc1` (stereo unspecified), the melting point came to 91.5 °C.
On to `O=Cc1ccc(-c2ccccc2Cl)o1`, for which the melting point fell in the range of 75 to 78 °C.
`O=S(=O)(Cl)c1c(Cl)sc(Cl)c1Br` displayed a melting point of 69 °C.
Turning to `FC(F)(F)C(I)(C(F)(F)F)C(F)(F)F`, the melting point worked out at 60 °C.
Regarding `CCC12CCCN3CCC4(c5cccc(OC)c5N(C(C)=O)C4CC1)C32` (stereo unspecified), the melting point came out at 208 °C.
To `Cc1ccc(-c2cc(NN=c3c(C(F)(F)F)nc4ccccc4[nH]c3=O)[nH]n2)cc1` belongs 135 °C.
Compound `CN(c1c(F)c(F)c(F)c(F)c1F)N(O)O` yielded a melting point of 39.5 °C.
Turning to `Nc1ccc(C(=O)O)cc1[N+](=O)[O-]`, the melting point was found to be 290 °C.
`OCCN1CCCCC1C(c1ccccc1)c1ccccc1` (stereo unspecified) registered a melting point of 106 °C.
The compound `O=C(O)C=CC(=O)Nc1ccc(F)cc1` yielded a melting point of 209 to 212 °C.
`CCc1cc2ccccc2c2ccccc12` displayed a melting point of 62.5 °C.
Compound `CCCCCCCCOc1ccc(N)cc1` showed a melting point of 35 to 39 °C.
To `Cc1ccc([N+](=O)[O-])c(N)c1C` belongs 117 to 122 °C.
To `CC12CCC3C4CCC(=O)C=C4CCC3C1CCC2O` (stereo unspecified) belongs 122 °C; to `C[Si](C)(C1C=Cc2ccccc21)C1C=Cc2ccccc21` (stereo unspecified), 85 to 87 °C.
The compound `Cc1cc(C(=O)O)oc1C` returned a melting point of 146 to 148 °C.
Under `Cc1c2c(c(CCl)c3c1CC3)CC2` stands 73 °C.
`FCCl` showed a melting point of -133 °C.
Compound `Cc1ccnc2c1ccc1c(C)ccnc12` registered a melting point of 194 °C.
Compound `O=CC1=Cc2cc(O)ccc2OC1` returned a melting point of 165 °C.
The compound `COCC(=NOCC(=O)OC)c1cc(Oc2ccc(C(F)(F)F)cc2Cl)ccc1[N+](=O)[O-]` yielded a melting point of 58 °C.
Under `CCOC(=O)NC(=O)CCl` stands 127 to 131 °C; under `C=C(C)C1CC=C(C)CC1` (stereo unspecified), -74.3 °C.
In the case of `Nc1nnc(-c2ccccc2)c(Nc2ccc(Cl)cc2)n1`, the melting point was 297 °C.
In the case of `OCc1cccc(-c2cccs2)c1`, the melting point was 46 to 49 °C.
In turn, `C=CCO` displayed a melting point of -129 °C.
In turn, `Cc1ccc(C(=O)O)cc1C(F)(F)F` showed a melting point of 177 °C.
On to `Oc1ccc(Cl)c(F)c1`, for which the melting point was 52 °C.
`COP(=S)(OC)Oc1ccc([N+](=O)[O-])c(Cl)c1` had a melting point of 21 °C.
Compound `NC(=O)C1CO1` (stereo unspecified) showed a melting point of 33 °C.
In the case of `O=c1c(O)c(-c2ccc(O)cc2O)oc2cc(O)cc(O)c12`, the melting point came to 304 °C.
Turning to `COc1ccc2cc(Br)ccc2c1CC#N`, the melting point lay within 147 to 148 °C.
In the case of `CC(OC/C(=N\NC(N)=O)c1ccccc1)=C(C#N)c1ccccc1`, the melting point lay within 156 to 158 °C.
The compound `COC(=O)C1(C(=O)OC)Cc2ccc(OC)cc2C(=O)O1` registered a melting point of 142 °C.
Turning to `Clc1ccc2c(c1)Oc1ccccc1O2`, the melting point was found to be 88 °C.
To `Nc1cc2ccccc2oc1=O` belongs 136 °C; to `CN1CCC(N2CCNCC2)CC1`, 31 °C.
Compound `N#Cc1c2ncccc2c(=O)n2c1sc1ccccc12` had a melting point of 275 °C.
To `CN(C)CCN1C(=O)c2ccccc2Nc2cc(Cl)ccc21` belongs 166 °C; to `O=[N+]([O-])c1ccc(O)c(CBr)c1`, 145 to 149 °C; to `Nc1nsc2ccc([N+](=O)[O-])cc12`, 200 °C.
Under `CNC(=O)N(C)c1nc2ccccc2s1` stands 120 °C; under `COC(=O)C(C#N)=C(SC)SC`, 85 to 87 °C.
`CC1=C(CCC(=O)O)c2cc3nc(cc4[nH]c(cc5[nH]c(cc1n2)c(C)c5C(C)O)c(C)c4C(C)O)C(C)=C3CCC(=O)O` (stereo unspecified) returned a melting point of 172 °C.
To `Cc1ccc(C(C)(C)C)cc1S` belongs -10 °C.
The compound `C[C@]1(O)C#CCCCCCC#C[C@@](C)(O)CC1` returned a melting point of 100 °C.
In turn, `CN1CCC23C(=O)CC4C(=CCOC5CC(=O)N(c6c(O)cccc62)C3C54)C1` (stereo unspecified) came in with a melting point of 282 °C.
`COC(=O)CSc1cc(N=c2sc(=O)n3n2CCCC3)c(F)cc1Cl` had a melting point of 106 °C.
Regarding `BrCCCCCCCCCCCCCCBr`, the melting point was found to be 50.4 °C.
Under `CC(=O)OC1(C(C)=O)CCC2(C)C(CCC3C4CCC(O)C4(C)CCC32)C1` (stereo unspecified) stands 193 °C.
For `CC(=O)N1N=C2c3ccccc3CCC2C1c1ccc(Cl)cc1` (stereo unspecified), the melting point was 182 to 183 °C.
With `CC(C)(C)c1cc(C(C)(C)C)c2oc3c(C(C)(C)C)cc(C(C)(C)C)c(=O)c-3nc2c1`, the melting point stood at 210 °C.
To `CC1=CC2(C)C3C(=O)OC(=O)C3C1C1C(=O)OC(=O)C12` (stereo unspecified) belongs 268 to 270 °C; to `C=CCOc1cc(O)c(C(C)=O)c(O)c1`, 145 to 146 °C; to `N#Cc1ccc(-n2ccnc2)cc1`, 151 to 153 °C.
